Reference: publication PMC5059489, “Mechanistic evaluation and transcriptional signature of a glutathione S-transferase omega 1 inhibitor” (Nature Communications, 2016)
Where “and” joins values, the source holds several entries; their conditions need not be identical. Equal values may be shown once.

Key:
endogenous GSTO1 = biological target: T1, endogenous GSTO1 (Homo sapiens, UniProt P78417); experiment: In-gel fluorescence competitive CMFDA binding assay, endogenous GSTO1 in HCT116; details: 10 µM; inhibition of CMFDA binding, HCT116
T1 sequence (P78417 1-241): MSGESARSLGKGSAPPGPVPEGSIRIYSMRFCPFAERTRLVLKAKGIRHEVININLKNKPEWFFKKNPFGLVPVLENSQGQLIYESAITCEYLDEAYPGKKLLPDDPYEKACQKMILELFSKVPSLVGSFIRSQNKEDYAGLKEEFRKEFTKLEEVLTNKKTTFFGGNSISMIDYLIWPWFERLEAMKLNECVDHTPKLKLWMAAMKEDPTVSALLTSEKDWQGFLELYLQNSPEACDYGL
Description: (§1) Primary screening of GSTO inhibitors was based on competitive inhibition of CMFDA binding to endogenous GSTO. Briefly, HCT116^p53+/+ cells (4 × 10^4 per well) were coated in a 12-well plate. […] Cells were then washed with PBS and lysed using Cell Lytic M buffer (Sigma). […] Gels were immediately scanned on a Typhoon variable mode imager (Amersham Bioscience). Quantification of fluorescent band intensity was done using Image Quant 5.2 software.

HCT116p53+/+ cell = experiment: MTT cell proliferation at single concentration; format: cell-based, human
Protocol: Cell proliferation was assessed by a MTT assay. Cancer cells were seeded in 96-well microtitre plates and, after overnight attachment, treated with GSTO1 inhibitors. After 72 h, MTT solution (3 mg ml^−1; 20 μl) was added to each well and cells were incubated for 3 h at 37 °C. After incubation, media from each well was removed and the dark blue formazan crystals formed by live cells were dissolved in DMSO (150 μl per well). The absorbance intensity was measured at 570 nm on a microplate reader (Molecular Devices, Sunnyvale, CA, USA). Cell viability after 24 h treatment was assessed using ApoTox-Glo triplex assay (Promega) according to the manufacturer's protocol. At least three independent dose–response experiments with each concentration tested in triplicate were performed for each cell line.

GSTO1 [1] = biological target: T2, GSTO1 (Homo sapiens, UniProt P78417); experiment: In-gel fluorescence competitive CMFDA binding assay, recombinant GSTO1; details: inhibition of CMFDA binding
T2 sequence (P78417 1-241): T1 sequence (P78417 1-241)
Description: as §1

GSTO1 [2] = biological target: T2, GSTO1; experiment: GSTO1 substrate assay (reduction of 4-NPG); details: for IC50: read-out: GSTO substrate assay IC50, cluster screening tables
Protocol: For activity screening, we adapted a GSTO1 substrate assay that relies on the quantification of the reduction of S-(4-nitrophenacyl)glutathione (4-NPG), a GSTO1-specific substrate[17], using recombinant human GSTO1 in a high-throughput screening format.
Enzyme activity was measured by monitoring the reduction of 4-NPG to 4-nitroacetophenone by GSTO1.

SMILES	GSTO binding assay (% Inhibition at 10 µM) Endogenous (endogenous GSTO1) [%]	% Inhibition of HCT116p53+/+ cell proliferation at 10 µM (HCT116p53+/+ cell)	GSTO binding assay (% Inhibition at 10 µM) Recombinant (GSTO1 [1]) [%]	GSTO substrate assay % Inhibition at 10 µM (GSTO1 [2]) [%]	IC50 (GSTO1 [2]) [nM]
O=C(CCl)Nc1cc2c(cc1Cl)C(=O)c1ccccc1C2=O [C1-12]	40.1	85%	26.5	10.4	
Cc1c(C#N)c(NC(=O)CCl)n(-c2ccc(F)cc2)c1C [C2-3]	47.0	49%	37.8	61.5	
CCOC(=O)c1c(NC(=O)CCl)sc(Cc2ccc3c(c2)OCO3)c1C [C2-13]	41.3	38.1%	48.1	25.9	
CCOC(=O)c1c(NC(=O)CCl)sc(Cl)c1-c1ccccc1 [C2-9]	59.2	16.3%	50.0	13.9	
O=C(CCl)NNC(=O)c1ccc(Br)cc1 [C3-21]	27.6	9.9%	58.4	81.3	
CN(CC(=O)Nc1c(Cl)cccc1Cl)C(=O)CCl [C4-7]	53.0	81.8%	-36.4	1.8	
O=C(CCl)Nc1ccc(Cl)cc1[N+](=O)[O-] [C1-2]	66.2	7.4%	54.1	100.9	1220
CCOC(=O)c1c(NC(=O)CCl)sc(C(=O)Nc2ccc(C)cc2C)c1C [C2-14]	58.2	6.3%	57.9	-7.0	
O=C(CCl)N1CCN(Cc2ccc(Br)s2)CC1 [C5-10]	55.8	71.5% and 90.4%	59.8	68.3	411
COc1cc(NC(=O)CCl)c(Cl)cc1C(=O)O [C1-10]	49.7	19.7%	49.1	81.7	
O=C(CCl)NCC1COc2ccccc2O1 (stereo not drawn) [C3-9]	53.9	24.9%	30.7	80.7	
O=C(CCl)N1CCN(Cc2ccccc2F)CC1 [C5-7]	53.1	-2.0% and -4.5%	65.1	72.8	338
CC1CCN(c2ccc(NC(=O)CCl)cc2)CC1 [C1-19]	65.7	79.2% and 85.4%	38.3	61.5	
CC(NC(=O)CCl)c1ccc2c(c1)OCO2 (stereo not drawn) [C3-7]	12.6	73.6%	12.3	12.5	
CCOC(=O)c1cc(C(C)C)sc1NC(=O)CCl [C2-8]	51.7	4.5% and 0.8%	39.2	3.8	
COc1ccc(-c2csc(NC(=O)CCl)n2)c(O)c1 [C2-24]	62.1	22.9% and 19.2%	82.4	34.0	
COc1ccc2cc(CN(C)C(=O)CCl)ccc2c1 [C4-6]	49.5	44.1% and 68.5%	55.2	29.3	

SMILES	GSTO binding assay (% Inhibition at 10 µM) Endogenous (endogenous GSTO1) [%]	% Inhibition of HCT116p53+/+ cell proliferation at 10 µM (HCT116p53+/+ cell)	GSTO binding assay (% Inhibition at 10 µM) Recombinant (GSTO1 [1]) [%]	GSTO substrate assay % Inhibition at 10 µM (GSTO1 [2]) [%]	IC50 (GSTO1 [2]) [nM]
O=C(CCl)Nc1cc(C2CC2)nn1-c1ccccc1 [C2-5]	69.4	-2.7% and -8.6%	64.1	4.4	
O=C(CCl)N(CC(F)(F)F)c1ccc(Cl)cc1 [C4-1]	58.5	76.2% and 81.4%	40.4	73.0	3800
CN(CC(=O)N1CCOCC1)C(=O)CCl [C4-12]	-29.3	91.1% and 92.6%	-4.7	81.7	
Cc1sc2ncn(NC(=O)CCl)c(=O)c2c1C [C2-30]	41.1	12.0%	50.5	47.4	
Cn1ccnc1C(NC(=O)CCl)c1ccccc1 (stereo not drawn) [C3-10]	48.4	96.5% and 87.4%	29.4	78.4	
O=C(CCl)NCC(=O)Nc1ccc(F)c(F)c1 [C3-25]	57.1	64.5% and 67.8%	36.2	82.4	
O=C(CCl)N1CCN(c2ccc(O)cc2)CC1 [C5-4]	33.4	81.9% and 84.4%	13.5	41.0	
CN(Cc1cnn(-c2ccccc2)c1)C(=O)CCl [C4-10]	53.1	82.1%	66.4	99.5	1950
O=C(CCl)N1CCN(Cc2cccc3ccccc23)CC1 [C5-9]	52.8	68.4% and 79.3%	62.3	83.7	381
O=C(CCl)NC1CCN(Cc2ccccc2)CC1 [C2-2]	66.7	1.1%	6.5	90.5	
N#CC(c1ccccc1)N1CCN(C(=O)CCl)CC1 (stereo not drawn) [C5-8]	75.7	82.6% and 87.3%	62.3	93.8	293
COc1ccc(C2=NN(C(=O)CCl)C(c3cccc(OC)c3OC)C2)cc1 (stereo not drawn) [C5-21]	28.9	78.2% and 83.6%	65.0	40.0	
N#Cc1cnn(-c2ccccc2)c1NC(=O)CCl [C2-6]	25.2	-17% and -9.7%	36.8	84.5	
O=C(CCl)N1CCN(S(=O)(=O)c2ccc3c(c2)OCCO3)CC1 [C5-15]		82.7% and 87.3%	62.4	63.7	262
Cc1cc(C(C)(C)C)cc(C)c1NC(=O)CCl [C1-1]		14% and 21.3%	17.7	16.2	
Cc1ccc(-c2oc(NC(=O)CCl)c(C#N)c2-c2ccc(C)cc2)cc1 [C2-28]		88.5%	59.5	-2.8	
CC1Cc2cc(S(N)(=O)=O)ccc2N1C(=O)CCl (stereo not drawn) [C5-20]		80.5% and 89.8%	68.1	61.0	2290
